Reference: US7563905B2, “Triazole derivatives and method of using the same to treat HIV infections” (Wyeth, priority 2004, dated 2009)

target: T1, HIV Reverse transcriptase (RT) 66/p51 (Human immunodeficiency virus type 1 group M subtype B, UniProt P04585); assay: RNA dependent DNA polymerase (RDDP) activity of HIV RT, polyrA-oligodT12-18 / 33P TTP incorporation filter assay; assay type: biochemical
T1 construct: HIV Reverse transcriptase (RT) 66/p51; purchased Worthington

How did the IC50 turn out when Cc1cn([C@H]2C[C@H](N=[N+]=[N-])[C@@H](CO)O2)c(=O)[nH]c1=O [AZT] was run?
Its IC50 is less than 200 nM.

target: T2, HIV reverse transcriptase (Human immunodeficiency virus type 1 group M subtype B, UniProt P04585); assay: Inhibition of HIV reverse transcriptase (RNase H fluorescent probe assay), Table I; assay type: biochemical
T2 construct: HIV reverse transcriptase has an RNase H domain at the C-terminus of its p66 subunit
Description: RNase H is an enzyme responsible for the removal of RNA primers from leading and lagging strands during DNA synthesis. It is an important enzyme for the replication of bacterial, viral and human genomes. HIV reverse transcriptase has an RNase H domain at the C-terminus of its p66 subunit. […] The ability of the compounds of the present invention to inhibit RNase H, and more particularly HIV reverse transcriptase, may be determined by any means known in the art.
Preferably, the RNase H/HIV reverse transcriptase modulatory activity of the compounds of the present invention may be determined by the methods described in copending U.S. Provisional Patent Application No. 60/436,125, filed Dec. 19, 2002 and PCT International Publication No. WO/2004/059012, filed Dec. 22, 2003 for ASSAY FOR RNase ACTIVITY of Olson et al., incorporated herein by reference in its entirety. Specifically, the modulatory activity of a triazole derivative of the present invention may be determined by hybridizing a target nucleic acid to a fluorescently labeled oligonucleotide probe complementary to the target nucleic acid and containing a fluorophor at one terminus and a quenching group at the other terminus to obtain a probe-target hybrid, wherein (i) the unhybridized probe adopts a conformation that places the fluorophon and quencher in such proximity that the quencher quenches the fluorescent signal of the fluorophon, and (ii) the formation of the probe-target hybrid causes sufficient separation of the fluorophon and quencher to reduce quenching of the fluorescent signal of the fluorophon. Next, a first and second sample containing the probe-target hybrid are prepared. The probe-target hybrid of the first sample is then contacted with an RNase H enzyme (such as HIV reverse transcriptase) in an amount sufficient to selectively cleave the target nucleic acid and thereby release the intact probe. The probe-target hybrid of the second sample is also contacted with the RNase H enzyme in an amount sufficient to selectively cleave the target nucleic acid and thereby release the intact probe in the presence of a triazole derivative of the present invention. The release of the probe in each sample may then be detected by measuring the […] in the fluorescent signal of the fluorophon as compared to the signal of the probe-target hybrid. A comparison of the rate of the decrease in the fluorescent signal of the fluorophon in the two samples is made to determine whether there is a difference in the rate of the decrease in the two samples. […] This method is also useful to identify triazole derivatives of the present invention, wherein candidate derivatives are screened for their ability to modulate RNase/HIV reverse transcriptase activity.

For Clc1ccc(CSc2nnc(-c3cccs3)n2Cc2ccccc2)cc1 [Example 1, 4-benzyl-3-[(4-chlorobenzyl)thio]-5-thien-2-yl-4H-1,2,4-triazole], which IC50 is on record?
The IC50 was 1.3 µM.

Which IC50 does the source give for c1ccc(CSc2nnc(-c3cccs3)n2Cc2ccccc2)cc1 [Example 2, 4-benzyl-3-(benzylthio)-5-thien-2-yl-4H-1,2,4-triazole] here?
The IC50 was less than 0.2 µM.

How did the IC50 turn out when c1ccc(Cn2c(SCc3ccncc3)nnc2-c2cccs2)cc1 [Example 3, 4-{[(4-benzyl-5-thien-2-yl-4H-1,2,4-triazol-3-yl)thio}methyl}pyridine] was run?
The IC50 was 0.2 µM.

For COc1ccc(CSc2nnc(-c3ccccc3)n2Cc2ccccc2)cc1 [Example 4, 4-benzyl-3-[(4-methoxybenzyl)thio]-5-phenyl-4H-1,2,4-triazole], which IC50 is on record?
Its IC50 is 1 µM.

For c1ccc(CSc2nnc(-c3ccccc3)n2Cc2ccccc2)cc1 [Example 5, 4-benzyl-3-(benzylthio)-5-phenyl-4H-1,2,4-triazole], which IC50 is on record?
Its IC50 is 1 µM.

With c1ccc(CSc2nnc(-c3ccco3)n2Cc2ccccc2)cc1 [Example 6, 4-benzyl-3-(benzylthio)-5-(2-furyl)-4H-1,2,4-triazole] as the compound, how does the IC50 read?
The IC50 was 1.2 µM.

With c1ccc(CSc2nnc(-c3ccccn3)n2Cc2ccccc2)cc1 [Example 7, 2-[4-benzyl-5-(benzylthio)-4H-1,2,4-triazol-3-yl]pyridine] as the compound, how does the IC50 read?
Its IC50 is 1.7 µM.

Which IC50 does the source give for c1ccc(Cn2c(SCc3ccncc3)nnc2-c2ccccn2)cc1 [Example 8, 2-[4-benzyl-5-[(pyridine-4-ylmethyl)thio)-4H-1,2,4-triazol-3-yl]pyridine] here?
The IC50 was 2.6 µM.

How did the IC50 turn out when COc1ccc(CSc2nnc(-c3ccco3)n2Cc2ccccc2)cc1 [Example 9, 4-benzyl-3-(2-furyl)-5-[(4-methoxybenzyl)thio]-4H-1,2,4-triazole] was run?
Its IC50 is 3.8 µM.

How did the IC50 turn out when Clc1ccc(CSc2nnc(-c3ccco3)n2Cc2ccccc2)cc1 [Example 10, 4-benzyl-3-[(4-chlorobenzyl)thio]-5-(2-furyl)-4H-1,2,4-triazole] was run?
The IC50 was 3.8 µM.

With FC(F)(F)c1ccc(CSc2nnc(-c3ccco3)n2-c2ccccc2)cc1 [Example 12, 3-(2-furyl)-4-phenyl-5-{[4-(trifluoromethyl)benzyl]thio}-4H-1,2,4-triazole] as the compound, how does the IC50 read?
Its IC50 is 4.7 µM.

With COc1ccc(CSc2nnc(-c3cccs3)n2Cc2ccccc2)cc1 [Example 13, 4-benzyl-3-[(4-methoxybenzyl)thio]-5-thien-2-yl-4H-1,2,4-triazole] as the compound, how does the IC50 read?
Its IC50 is 5.9 µM.

With COc1ccc(Cn2c(SCc3ccc(C(F)(F)F)cc3)nnc2-c2ccco2)cc1 [Example 14, 3-(2-furyl)-4(4-methoxybenzyl)-5-{[4-(trifluoromethyl)benzyl]thio}-4H-1,2,4-triazole] as the compound, how does the IC50 read?
The IC50 was 6.5 µM.

With Clc1ccc(CSc2nnc(-c3ccccc3)n2Cc2ccccc2)cc1 [Example 15, 4-benzyl-3-(4-chloro-benzylsulfanyl)-5-phenyl-4H-1,2,4-triazole] as the compound, how does the IC50 read?
Its IC50 is 6 µM.

With COc1ccc(CSc2nnc(-c3ccccn3)n2Cc2ccccc2)cc1 [Example 16, 2-[4-benzyl-5-(4-methoxy-benzylsulfanyl)-4H-1,2,4-triazol-3-yl]pyridine] as the compound, how does the IC50 read?
Its IC50 is 7 µM.

For Clc1ccc(CSc2nnc(-c3ccccn3)n2Cc2ccccc2)cc1 [Example 17, 2-[4-benzyl-5-(4-chloro-benzylsulfanyl)-4H-1,2,4-triazol-3-yl]pyridine], which IC50 is on record?
Its IC50 is 23 µM.

COc1ccc(Cn2c(SCc3ccccc3)nnc2-c2ccco2)cc1 [Example 18, 3-benzylsulfanyl-5-furan-2-yl-4-(4-methoxy-benzyl)-4H-1,2,4-triazole] was tested. Which IC50 did it give?
The IC50 was 46 µM.
